# Results: patent US20240350522A1, “HYGROMYCIN A FOR TREATMENT OF DISEASES AND INFECTIONS” (FLIGHTPATH BIOSCIENCES, INC., priority 2021, published 2024)
# Several values for one entry are separate records, joined by “and”; a condition that tells them apart may be missing. Equal entries are not always repeated. Where two headings read alike, the source gives them in different places.
# Columns and labels:
# Type in all cases: cell-based
# Treponema denticola = test: MBC of Hyg A against Treponema denticola strains; details: for MBC: Treponema denticola
# [1] = tested on: Parvimonas micra (ATCC 33270); test: MIC of Hyg A against P. micra; details: ATCC33270
# [2] = tested on: Treponema pallidum pallidum Chicago strain; test: Treated treponemes seeded onto no-antibiotic plate, 7 more days, T47 qPCR (treponemicidal activity); details: for Mean T47 copies/μL, Avg. / Mean T47 copies/μL, Expt. values: seeded on no antibiotic plate; for Mean T47 copies/μL, Avg.: average; for Mean T47 copies/μL, Expt. values: replicate wells
# [3] = tested on: Treponema pallidum pallidum SS14 strain; test: as above; details: for Mean T47 copies/μL, Avg. / Mean T47 copies/μL, Expt. values: seeded on no antibiotic plate; for Mean T47 copies/μL, Avg.: average; for Mean T47 copies/μL, Expt. values: replicate wells
# [4] = pre-treated with Hygromycin A 0.03 μg/ml
# [5] = pre-treated with Hygromycin A 0.06 μg/ml
# [6] = pre-treated with Hygromycin A 0.12 μg/ml
# [7] = pre-treated with Hygromycin A 0.24 μg/ml
# [8] = pre-treated with Hygromycin A 0.48 μg/ml
# [9] = pre-treated with Hygromycin A 0.96 μg/ml
# [10] = pre-treated with Hygromycin A 1.92 μg/ml
# [11] = pre-treated with Hygromycin A 3.84 μg/ml
smiles,measurement,setting,value
"CC(=O)[C@H]1O[C@@H](Oc2ccc(/C=C(\C)C(=O)N[C@@H]3[C@H](O)[C@@H](O)[C@H]4OCO[C@H]4[C@@H]3O)cc2O)[C@@H](O)[C@@H]1O [Hyg A, Hygromycin A]",MBC,"Treponema denticola; T. denticola 33521, experiment 2, read-out: MBC (μg/ml) 2",2 µg/mL
same,MBC,"Treponema denticola; T. denticola 35404, experiment 1, read-out: MBC (μg/ml) 1",5 µg/mL
same,MBC,"Treponema denticola; T. denticola 35404, experiment 2, read-out: MBC (μg/ml) 2",> 5 µg/mL
same,MBC,"Treponema denticola; T. denticola 35405, experiment 1, read-out: MBC (μg/ml) 1",1 µg/mL
same,MBC,"Treponema denticola; T. denticola 35405, experiment 2, read-out: MBC (μg/ml) 2",0.5 µg/mL
same,MBC,"Treponema denticola; T. denticola ASLM, experiment 1, read-out: MBC (μg/ml) 1",1 µg/mL
same,MBC,"Treponema denticola; T. denticola ASLM, experiment 2, read-out: MBC (μg/ml) 2",1 µg/mL
same,MBC,"Treponema denticola; T. denticola H1-T, experiment 1, read-out: MBC (μg/ml) 1",0.5 µg/mL
same,MBC,"Treponema denticola; T. denticola H1-T, experiment 2, read-out: MBC (μg/ml) 2",0.5 µg/mL
same,MBC,"Treponema denticola; T. denticola OTK, experiment 1, read-out: MBC (μg/ml) 1",1 µg/mL
same,MBC,"Treponema denticola; T. denticola OTK, experiment 2, read-out: MBC (μg/ml) 2",1 µg/mL
same,MBC,"Treponema denticola; T. denticola SP44, experiment 1, read-out: MBC (μg/ml) 1",5 µg/mL
same,MBC,"Treponema denticola; T. denticola SP44, experiment 2, read-out: MBC (μg/ml) 2",2 µg/mL
same,MBC,"Treponema denticola; T. denticola US Trep, experiment 1, read-out: MBC (μg/ml) 1",1 µg/mL
same,MBC,"Treponema denticola; T. denticola US Trep, experiment 2, read-out: MBC (μg/ml) 2",1 µg/mL
same,ratio of MBC/MIC,Treponema denticola; average for all T. denticola strains,2.3
same,MIC,"[1]; Parvimonas micra ATCC 33270, read-out: MIC",2 µg/mL
same,MIC,"[1]; Parvimonas micra, P. micra 33270, experiment 1, read-out: MIC (μg/ml) 1",2 µg/mL
same,MIC,"[1]; Parvimonas micra, P. micra 33270, experiment 2, read-out: MIC (μg/ml) 2",2 µg/mL
same,concentration with treponemicidal activity,[2]; Chicago strain seeded onto no-antibiotic control plate,≥ 0.12 µg/mL
same,"Mean T47 copies/μL, Avg.",[2]; [4],14552 copies/μL
same,"Mean T47 copies/μL, Expt. values",[2]; [4],10276 copies/μL and 18338 copies/μL and 20335 copies/μL and 9952 copies/μL
same,"Mean T47 copies/μL, Avg.",[2]; [5],1000 copies/μL
same,"Mean T47 copies/μL, Expt. values",[2]; [5],744 copies/μL and 560 copies/μL and 2087 copies/μL and 892 copies/μL
same,"Mean T47 copies/μL, Avg.",[2]; [6],28 copies/μL
same,"Mean T47 copies/μL, Expt. values",[2]; [6],13 copies/μL and 19 copies/μL and 39 copies/μL and 22 copies/μL
same,"Mean T47 copies/μL, Avg.",[2]; [7],32 copies/μL
same,"Mean T47 copies/μL, Expt. values",[2]; [7],17 copies/μL and 41 copies/μL and 22 copies/μL and 52 copies/μL
same,"Mean T47 copies/μL, Avg.",[2]; [8],26 copies/μL
same,"Mean T47 copies/μL, Expt. values",[2]; [8],0 copies/μL and 32 copies/μL (2×) and 23 copies/μL and 22 copies/μL
same,"Mean T47 copies/μL, Avg.",[2]; [9],24 copies/μL
same,"Mean T47 copies/μL, Expt. values",[2]; [9],14 copies/μL and 23 copies/μL and 31 copies/μL and 27 copies/μL and 7 copies/μL
same,"Mean T47 copies/μL, Avg.",[2]; [10],23 copies/μL
same,"Mean T47 copies/μL, Expt. values",[2]; [10],28 copies/μL and 8 copies/μL and 23 copies/μL and 36 copies/μL and 34 copies/μL
same,"Mean T47 copies/μL, Avg.",[2]; [11],27 copies/μL
same,"Mean T47 copies/μL, Expt. values",[2]; [11],37 copies/μL and 24 copies/μL and 27 copies/μL and 41 copies/μL and 13 copies/μL
same,concentration with treponemicidal activity,[3]; SS14 strain seeded onto no-antibiotic control plate,≥ 0.12 µg/mL
same,"Mean T47 copies/μL, Avg.",[3]; [4],2232 copies/μL
same,"Mean T47 copies/μL, Expt. values",[3]; [4],1649 copies/μL and 3690 copies/μL and 3831 copies/μL and 2114 copies/μL and 445 copies/μL and 1541 copies/μL and 2079 copies/μL and 2511 copies/μL
same,"Mean T47 copies/μL, Avg.",[3]; [5],199 copies/μL
same,"Mean T47 copies/μL, Expt. values",[3]; [5],137 copies/μL and 310 copies/μL and 274 copies/μL and 99 copies/μL and 71 copies/μL and 159 copies/μL and 200 copies/μL and 343 copies/μL
same,"Mean T47 copies/μL, Avg.",[3]; [6],20 copies/μL
same,"Mean T47 copies/μL, Expt. values",[3]; [6],17 copies/μL and 14 copies/μL and 45 copies/μL and 0 copies/μL and 22 copies/μL and 25 copies/μL and 15 copies/μL and 24 copies/μL
same,"Mean T47 copies/μL, Avg.",[3]; [7],13 copies/μL
same,"Mean T47 copies/μL, Expt. values",[3]; [7],35 copies/μL and 16 copies/μL (2×) and 6 copies/μL and 5 copies/μL and 21 copies/μL and 7 copies/μL and 0 copies/μL
same,"Mean T47 copies/μL, Avg.",[3]; [8],9 copies/μL
same,"Mean T47 copies/μL, Expt. values",[3]; [8],2 copies/μL and 0 copies/μL (2×) and 16 copies/μL and 10 copies/μL and 31 copies/μL and 5 copies/μL and 6 copies/μL
same,"Mean T47 copies/μL, Avg.",[3]; [9],7 copies/μL
same,"Mean T47 copies/μL, Expt. values",[3]; [9],8 copies/μL and 11 copies/μL and 0 copies/μL (2×) and 3 copies/μL (2×) and 16 copies/μL and 13 copies/μL
same,"Mean T47 copies/μL, Avg.",[3]; [10],13 copies/μL
same,"Mean T47 copies/μL, Expt. values",[3]; [10],5 copies/μL (2×) and 7 copies/μL and 17 copies/μL and 19 copies/μL (2×) and 8 copies/μL and 22 copies/μL
same,"Mean T47 copies/μL, Avg.",[3]; [11],19 copies/μL
same,"Mean T47 copies/μL, Expt. values",[3]; [11],19 copies/μL and 25 copies/μL and 21 copies/μL (2×) and 18 copies/μL and 7 copies/μL and 15 copies/μL and 22 copies/μL
